Test results reported in patent US20220168301A1, “METHODS FOR TREATING SYMPTOMATIC ORTHOSTATIC HYPOTENSION” (Cerecor Inc, priority 2019, published 2022).
Read-outs that look alike come from different tables or passages of the source.

Tests used:
[1] = system: patients with symptomatic nOH associated with Parkinson's disease; assay: Safety and tolerability of single doses in patients with nOH associated with Parkinson's disease; format: in vivo, human
Description: This study was designed as a randomized, double-blind, placebo-controlled trial in order to distinguish effects of active treatment in an efficient and unbiased manner. As CERC-301 had not previously been tested in subjects with symptomatic OH, a single escalating dose study design was used to ensure safety of the study participants.
Subjects were dosed on five separate occasions, approximately 7-10 days apart, with one of four single escalating doses of CERC-301 or placebo and underwent an orthostatic challenge test to assess the safety, tolerability, effect on blood pressure, and PK. Subjects also completed a symptomatic assessment following the orthostatic challenge. Subjects were enrolled and randomized based on the dosing schedule in Table 4:
AEs were monitored and the following information recorded: • Verbatim complaint • Whether the event was treatment-emergent (TEAE) • Whether event was serious (SAE) • Date of onset • Severity of event • Relationship of event to study drug • Action taken regarding study drug due to the event • Clinical outcome of event (resolved or ongoing) • If resolved, provide date of resolution
The following vital signs were measured during the study: • Blood pressure (systolic and diastolic [mm Hg]) • Heart rate (beats per minute [bpm]) • Oral body temperature (°C)
Two analysis sets were used. […] The SAF consists of all randomized subjects who receive at least one dose of study medication. […] The PKAS consists of all subjects from the SAF for whom sufficient plasma concentration data are available to facilitate the calculation of at least one PK parameter.
All safety and tolerability data are summarized using descriptive statistics. They are listed and summarized in tabular and/or graphical form. […] Descriptive statistics for laboratory values and their change or shift from baseline for each dose group are provided for each scheduled time of collection. Descriptive statistics for vital signs and their change from baseline for each dose group are provided for each scheduled time of collection. The placebo subjects are combined into a single placebo group for summary presentations.

[2] = Plasma pharmacokinetics of CERC-301, single and 7-day repeated dose, healthy subjects; format: in vivo, human; conditions: for half-life: read-out: Average t1/2; for Tmax: read-out: Median tmax
Description: (§1) The study was a randomized, double-blind, placebo-controlled parallel-group, three-part, repeated dose in-patient study investigating the safety, tolerability, PK, and PD of CERC-301 in healthy subjects.
(§2) Subjects received 8, 12, 16 or 20 mg CERC-301 or matching placebo once-daily for 7 days.
PK endpoints included the following determined from plasma CERC-301 concentration data: • Day 1 parameters include Cmax, Tmax, AUC0-24, AUC0-inf, AUC%extrap, CL/F, Vz/F, and t1/2 • Day 7 parameters include Cmax, Tmax, AUC0-24, AUC0-inf, AUC%extrap, CL/F, Vss/F, t1/2, and Cavg • Trough concentrations will be reported for Days 2-8 • Accumulation after 7-days of dosing will be investigated by calculating: • Observed Accumulation Ratio: AUCo-24 (Day 7)/AUC0-24 (Day 1) • Steady State Accumulation Ratio: AUC0-24 (Day 7)/AUC0-int (Day 1) • Cmax ratio: Cmax (Day 7)/Cmax (Day 1)
Pharmacokinetic parameters were determined for CERC-301 using noncompartmental methods based on plasma CERC-301 concentration data following the first and last dose of CERC-301. […] Mean plasma CERC-301 concentrations on Day 7 were approximately 20% to 40% higher from 2 to 24 hours postdose in the intermediate age and elderly subgroups, respectively, compared to the young age subgroup, and were approximately 20% higher from 2 to 24 hours postdose in female subjects compared to male subjects.

[3] = rats, cited from earlier work
healthy subjects = assay: Safety and tolerability over 7 days of once-daily administration in healthy subjects; format: in vivo, human
Description: as §1, §2
The safety variables evaluated included treatment-emergent adverse events (TEAE), vital signs, clinical safety laboratories (chemistry, hematology, urinalysis), electrocardiograms (ECGs), physical examinations, Clinician Administered Dissociated States Scale (CADSS) and Columbia-Suicide Severity Rating Scale (C-SSRS).

[4] = monkeys, cited from earlier work
[5] = whole study, active and placebo not separated

Plasma CERC-301 concentrations increase with dose ([2]; 8 to 20 mg, steady-state daily dosing): approximately dose proportional | Apparent oral clearance, lower in female subjects compared to male subjects ([2]; Day 7): approximately 15% | Apparent oral clearance, lower in intermediate age group compared to young age group ([2]; Day 7): approximately 18% | Average Cmax, higher in intermediate age and elderly subgroups compared to young age group ([2]; Day 7): approximately 30% | Average t1/2, higher in elderly age group compared to young age group ([2]; Day 7): ~38% | Average t1/2, higher in female subjects compared to male subjects ([2]; Day 7): approximately 16% | Average t1/2, higher in intermediate age group compared to young age group ([2]; Day 7): approximately 27% | Mean plasma CERC-301 concentrations, higher in elderly subgroup compared to young age subgroup ([2]; Day 7, 2 to 24 hours postdose): ~40% | Mean plasma CERC-301 concentrations, higher in female subjects compared to male subjects ([2]; Day 7, 2 to 24 hours postdose): approximately 20% | Mean plasma CERC-301 concentrations, higher in intermediate age subgroup compared to young age subgroup ([2]; Day 7, 2 to 24 hours postdose): approximately 20% | Cmax and AUC increase with dose ([2]; Days 1 and 7, 8 to 20 mg): approximately dose-proportional | half-life ([2]; both sexes, human, plasma, oral, male and female subjects, Day 7): 21 to 24 h | Tmax ([2]; both sexes, human, plasma, oral, male and female subjects): 1.75 to 2 h | Average Day 7 to Day 1 Cmax ratio ([2]; elderly age group): 1.53 | Mean observed accumulation index ([2]; elderly age group): 2.12 | Mean steady state accumulation index ([2]; elderly age group): 1.30 | Average apparent volume of distribution ([2]; elderly age subgroup, Day 7): 111 L | Average Day 7 to Day 1 Cmax ratio ([2]; females): 1.38 | Mean observed accumulation index ([2]; females): 1.88 | Mean steady state accumulation index ([2]; females): 1.10 | Average apparent volume of distribution ([2]; females, Day 7): 105 L | Oral bioavailability ([2]; human, in vivo, po): orally bioavailable | Tmax ([2]; human, plasma, oral, Day 1, 8 to 20 mg): 2 to 3 h | Tmax ([2]; human, plasma, oral, Day 7, 8 to 20 mg): 1.5 to 3 h | Tmax ([2]; human, plasma, oral, young subjects, Days 1 and 7, 8 to 20 mg): 1.5 to 3 h | half-life ([2]; human, plasma, oral, young, intermediate age and elderly subgroups, Day 7): 20 to 28 h | Tmax ([2]; human, plasma, oral, young, intermediate age and elderly subgroups): 1.5 to 2.5 h | Vd ([2]; human, plasma, oral, young subjects, Day 7, 8 to 20 mg, read-out: Average apparent volume of distribution): 83 to 115 L | half-life ([2]; human, plasma, oral, young subjects, Day 7, 8 to 20 mg): 17 to 21 h | Average Day 7 to Day 1 Cmax ratio ([2]; intermediate age group): 1.41 | Mean observed accumulation index ([2]; intermediate age group): 1.92 | Mean steady state accumulation index ([2]; intermediate age group): 1.13 | Average apparent volume of distribution ([2]; intermediate age subgroup, Day 7): 121 L | Average Day 7 to Day 1 Cmax ratio ([2]; males): 1.36 | Mean observed accumulation index ([2]; males): 1.72 | Mean steady state accumulation index ([2]; males): 1.15 | Average apparent volume of distribution ([2]; males, Day 7): 108 L | Steady-state predose plasma CERC-301 concentrations achieved ([2]; repeated daily doses): by study day 5 or 6 | Average Day 7 to Day 1 Cmax ratio ([2]; young age group): 1.15 | Mean observed accumulation index ([2]; young age group): 1.65 | Mean steady state accumulation index ([2]; young age group): 1.01 | Average apparent volume of distribution ([2]; young age subgroup, Day 7): 115 L | Steady-state accumulation index (AUC0-24 Day 7/AUC0-inf Day 1) ([2]; young subjects, on average): 1.1
Compound: Cc1ccc(COC(=O)N2CC[C@H](CNc3ncccn3)[C@H](F)C2)cc1 [CERC-301]
Safety and tolerability ([1]; single doses of 8, 12, 16 and 20 mg): safe and well tolerated | Signals of increased heart rate or supine hypertension during the recumbent phase of the OST, active versus placebo ([1]; single doses of 8 to 20 mg): No signals of increased heart rate or, supine hypertension | SAEs ([1]; whole study): No SAEs were reported | AE reported: blurred vision [1, 5]: 14.3% | AE reported: dizziness [1, 5]: 7.1% | AE reported: fall [1, 5]: 14.3% | AE reported: hypoaesthesia [1, 5]: 7.1% | AE reported: hypotension [1, 5]: 7.1% | AE reported: memory impairment [1, 5]: 7.1% | AE reported: nasal congestion [1, 5]: 7.1% | AE reported: on/off phenomenon [1, 5]: 7.1% | AE reported: somnolence [1, 5]: 7.1% | AE reported: squamous cell carcinoma [1, 5]: 7.1% | Excretion [3]: excreted exclusively as metabolites via both the biliary and renal routes | Metabolism [3]: highly metabolized via multiple cytochrome P450 (CYP450) enzymes | Absorption ([3]; oral administration): rapidly absorbed after oral administration | Changes in vital signs, ECGs or physical examination attributable to CERC-301 (healthy subjects; 8 to 20 mg for 7 days): no clinically significant adverse changes | Dose-related or age-related differences in TEAEs or related AEs (healthy subjects; 8 to 20 mg for 7 days): no clear-cut dose-related or age-related differences | Most common related AEs (each in at least two subjects receiving CERC-301) (healthy subjects; 8 to 20 mg for 7 days): feeling abnormal, headache, feeling of relaxation, elevated mood, dizziness, logorrhea, sedation, visual impairment, energy increased, palpitations, disturbance in attention, hypervigilance, confusional state, oral paresthesia, anxiety, chest pain, depressed mood, diarrhea, and balance disorder | Laboratory abnormalities attributable to CERC-301 (healthy subjects; except ALT/AST increases in one elderly and elevated prolactin in one young, both 12 mg): no clinically significant laboratory abnormalities | Tolerability (healthy subjects; repeated daily doses of 8, 12, 16 and 20 mg for 7 days): generally well tolerated | Excretion [4]: excreted exclusively as metabolites via both the biliary and renal routes | Metabolism [4]: highly metabolized via multiple cytochrome P450 (CYP450) enzymes | Absorption ([4]; oral administration): rapidly absorbed after oral administration
